Test results as given in patent US20020051978A1, “Methods and compositions for the identification, assessment, prevention and therapy of human cancers” (priority 2000, published 2002).
Several values for one entry are separate records, joined by “and”; a condition that tells them apart may be missing. Equal entries are not always repeated. Where two headings read alike, the source gives them in different places.

Tested on: 60 cancer cell lines (NCI 60 cancer cell line series)
Assay: NCI-DTP in vitro cancer screen, sulforhodamine B (SRB) growth inhibition, 48 hour exposure
Type: cell-based, human
Method: Cancer Cell Line Preparation. Sixty cancer cell lines were obtained from the National Cancer Institute Developmental Therapeutics Program (NCI-DTP). Procedures for growing cells and testing compounds have been described previously (Scudiero et al., Cancer Res. 1988, 48:4827-4833; Stinson et al., Anticancer Res.; Myers et al., Electrophoresis 1997, 18:647-653). Cells are plated on day 0 at a density individualized for each cell line so that they will generally be sub-confluent at the end of the assay period. On day 1, a compound is added in the format for a duplicate-well, 5-dose, ten-fold interval dose response study.
No-drug, no-cell and no-growth controls are included. On day 3 the cells are processed for staining with sulforhodamine B (SRB), which reflects the amount of cell mass present at the end of a 48 hour exposure to the test agent. From dose response curves based on the SRB data, various parameters can be determined. The one used in the present study is the G15o, defined as the concentration of compound required to inhibit growth of the cell line by 50%. More precisely, the quantity used in the calculation to be described is the potency measure -log{GI50}.
Activity database (A). Table IA, consisting of the growth inhibition (GI5o) values for the 60 cell lines and 24 compounds, was created from the NCI-DTP in vitro cancer screen database. This subset of compounds was selected from the larger 23,000 compound database available from the DTP. The compounds were selected on the basis of their known mechanism of action and chemical structure. The average potency—log{GI50} was extracted from the comma-delimited text files available through the Web at http://www.nci.nih.gov/intra/lmp/jnwbio.htmrl. Subsequently, these log{GI5o} values were inspected manually and classified as indicating either Low, Medium or High sensitivity to each compound.

Nc1ccn([C@@H]2O[C@H](CO)[C@@H](O)[C@@H]2O)c(=O)n1 [AraC]
1 # of Low: 17 | 2 # of Medium: 33 | 3 # of High: 10 | classification of cell line as Low(1), Medium(2) or High(3) sensitivity to compound: 2 and 3 and 1 | sensitivity class NSCLC NCI-H23(I) CL1001: 3 | sensitivity class NSCLC NCI-H332M CL1017: 2 | sensitivity class NSCLC NCI-H460 CL1021: 3 | sensitivity class NSCLC NCI-H522 CL1003: 2 | sensitivity class Ovarian IGROV1 CL6010: 1 | sensitivity class Ovarian OVCAR-3 CL6001: 1 | sensitivity class Ovarian OVCAR-4 CL6002: 1 | sensitivity class Ovarian OVCAR-5 CL6003: 2 | sensitivity class Ovarian OVCAR-8 CL6005: 2 | sensitivity class Ovarian SK-OV-3 CL6011: 2 | sensitivity class Prostate DU-145 CL11003: 1 | sensitivity class Prostate PC-3(I) CL11001: 2 | sensitivity class Renal 786-O CL9018: 2 | sensitivity class Renal A498 CL9013: 2 | sensitivity class Renal ACHN CL9023: 2 | sensitivity class Renal CAKI-1 CL9015: 2 | sensitivity class Renal RXF-393 CL9016: 2 | sensitivity class Renal SN12C CL9008: 2 | sensitivity class Renal TK10 CL9024: 1 | sensitivity class Renal UO-31 CL9004: 2 | sensitivity class of the cell line to the compound (1 Low, 2 Medium, 3 High): 2 and 1 and 3

CC[C@]1(O)C[C@@H]2CN(CCc3c([nH]c4ccccc34)[C@@](C(=O)OC)(c3cc4c(cc3OC)N(C)[C@H]3[C@@](O)(C(=O)OC)[C@H](OC(C)=O)[C@]5(CC)C=CCN6CC[C@]43[C@@H]65)C2)C1.O=S(=O)(O)O [Vinbiastine sulfate]
classification of cell line as Low(1), Medium(2) or High(3) sensitivity to compound: 2 and 3 and 1

Carboplatin
classification of cell line as Low(1), Medium(2) or High(3) sensitivity to compound (Breast BT-549 (CL5013)): 2 | classification of cell line as Low(1), Medium(2) or High(3) sensitivity to compound (Breast HS-578T CL5006): 2 | classification of cell line as Low(1), Medium(2) or High(3) sensitivity to compound (Breast MCF7(I) (CL5001)): 2 | classification of cell line as Low(1), Medium(2) or High(3) sensitivity to compound (Breast MCF7/ADRr (CL5002)): 2 | classification of cell line as Low(1), Medium(2) or High(3) sensitivity to compound (Breast MDA-MB-231 CL5005): 1 | classification of cell line as Low(1), Medium(2) or High(3) sensitivity to compound (Breast MDA-MB-435 (CL5011)): 1 | classification of cell line as Low(1), Medium(2) or High(3) sensitivity to compound (Breast MDA-N CL5012): 2 | classification of cell line as Low(1), Medium(2) or High(3) sensitivity to compound (Breast T-47D (CL5014)): 1 | classification of cell line as Low(1), Medium(2) or High(3) sensitivity to compound (CNS SF-268 CL12014): 3 | classification of cell line as Low(1), Medium(2) or High(3) sensitivity to compound (CNS SF-295 CL12015): 3 | classification of cell line as Low(1), Medium(2) or High(3) sensitivity to compound (CNS SF-539 CL12016): 2 | classification of cell line as Low(1), Medium(2) or High(3) sensitivity to compound (CNS SNB-19 (CL12002)): 2 | classification of cell line as Low(1), Medium(2) or High(3) sensitivity to compound (CNS SNB-75(I) CL12005): 2 | classification of cell line as Low(1), Medium(2) or High(3) sensitivity to compound (CNS U251(I) CL12009): 2 | classification of cell line as Low(1), Medium(2) or High(3) sensitivity to compound (Colon COLO-250 CL4010): 1 | classification of cell line as Low(1), Medium(2) or High(3) sensitivity to compound (Colon HCC-2998 (CL4002)): 1 | classification of cell line as Low(1), Medium(2) or High(3) sensitivity to compound (Colon HCT-15 CL4015): 1 | classification of cell line as Low(1), Medium(2) or High(3) sensitivity to compound (Colon HCT-116 (CL4003)): 2 | classification of cell line as Low(1), Medium(2) or High(3) sensitivity to compound (Colon HT29(I) CL4001): 1 | classification of cell line as Low(1), Medium(2) or High(3) sensitivity to compound (Colon KM12 (CL4017)): 1 | classification of cell line as Low(1), Medium(2) or High(3) sensitivity to compound (Colon SW-620 (CL4009)): 2 | classification of cell line as Low(1), Medium(2) or High(3) sensitivity to compound (Leukemia CCRF-CEM(I) (CL7003)): 2 | classification of cell line as Low(1), Medium(2) or High(3) sensitivity to compound (Leukemia HL-60(I) (CL7008)): 3 | classification of cell line as Low(1), Medium(2) or High(3) sensitivity to compound (Leukemia K562(I) CL7005): 2 | classification of cell line as Low(1), Medium(2) or High(3) sensitivity to compound (Leukemia MOLT-4 (CL7006)): 2 | classification of cell line as Low(1), Medium(2) or High(3) sensitivity to compound (Leukemia RPMI-8226(I) (CL7010)): 2 | classification of cell line as Low(1), Medium(2) or High(3) sensitivity to compound (Leukemia SR CL7019): 2 | classification of cell line as Low(1), Medium(2) or High(3) sensitivity to compound (Melanoma LOX IMVI CL10001): 2 | classification of cell line as Low(1), Medium(2) or High(3) sensitivity to compound (Melanoma M14 (CL10014)): 2 | classification of cell line as Low(1), Medium(2) or High(3) sensitivity to compound (Melanoma MALME-3M CL10002): 2 | sensitivity class NSCLC NCI-H23(I) CL1001 (cell line NSCLC NCI-H23(I), CL1001): 3 | sensitivity class NSCLC NCI-H332M CL1017 (cell line NSCLC NCI-H332M, CL1017): 1 | sensitivity class NSCLC NCI-H460 CL1021 (cell line NSCLC NCI-H460, CL1021): 3 | sensitivity class NSCLC NCI-H522 CL1003 (cell line NSCLC NCI-H522, CL1003): 3 | sensitivity class Ovarian IGROV1 CL6010 (cell line Ovarian IGROV1, CL6010): 3 | sensitivity class Ovarian OVCAR-3 CL6001 (cell line Ovarian OVCAR-3, CL6001): 2 | sensitivity class Ovarian OVCAR-4 CL6002 (cell line Ovarian OVCAR-4, CL6002): 2 | sensitivity class Ovarian OVCAR-5 CL6003 (cell line Ovarian OVCAR-5, CL6003): 1 | sensitivity class Ovarian OVCAR-8 CL6005 (cell line Ovarian OVCAR-8, CL6005): 2 | sensitivity class Ovarian SK-OV-3 CL6011 (cell line Ovarian SK-OV-3, CL6011): 2 | sensitivity class Prostate DU-145 CL11003 (cell line Prostate DU-145, CL11003): 2 | sensitivity class Prostate PC-3(I) CL11001 (cell line Prostate PC-3(I), CL11001): 1 | sensitivity class Renal 786-O CL9018 (cell line Renal 786-O, CL9018): 2 | sensitivity class Renal A498 CL9013 (cell line Renal A498, CL9013): 1 | sensitivity class Renal ACHN CL9023 (cell line Renal ACHN, CL9023): 2 | sensitivity class Renal CAKI-1 CL9015 (cell line Renal CAKI-1, CL9015): 2 | sensitivity class Renal RXF-393 CL9016 (cell line Renal RXF-393, CL9016): 2 | sensitivity class Renal SN12C CL9008 (cell line Renal SN12C, CL9008): 2 | sensitivity class Renal TK10 CL9024 (cell line Renal TK10, CL9024): 1 | sensitivity class Renal UO-31 CL9004 (cell line Renal UO-31, CL9004): 2 | 3 # of High (number of the 60 cell lines classified High (3) sensitivity): 8 | 1 # of Low (number of the 60 cell lines classified Low (1) sensitivity): 14 | 2 # of Medium (number of the 60 cell lines classified Medium (2) sensitivity): 38

O=NN(CCCl)C(=O)NCCCl [BCNU]
1 # of Low: 13 | 2 # of Medium: 37 | 3 # of High: 10 | sensitivity class NSCLC NCI-H23(I) CL1001: 2 | sensitivity class NSCLC NCI-H332M CL1017: 1 | sensitivity class NSCLC NCI-H460 CL1021: 2 | sensitivity class NSCLC NCI-H522 CL1003: 3 | sensitivity class Ovarian IGROV1 CL6010: 2 | sensitivity class Ovarian OVCAR-3 CL6001: 2 | sensitivity class Ovarian OVCAR-4 CL6002: 2 | sensitivity class Ovarian OVCAR-5 CL6003: 1 | sensitivity class Ovarian OVCAR-8 CL6005: 2 | sensitivity class Ovarian SK-OV-3 CL6011: 1 | sensitivity class Prostate DU-145 CL11003: 1 | sensitivity class Prostate PC-3(I) CL11001: 2 | sensitivity class Renal 786-O CL9018: 3 | sensitivity class Renal A498 CL9013: 1 | sensitivity class Renal ACHN CL9023: 2 | sensitivity class Renal CAKI-1 CL9015: 2 | sensitivity class Renal RXF-393 CL9016: 2 | sensitivity class Renal SN12C CL9008: 2 | sensitivity class Renal TK10 CL9024: 2 | sensitivity class Renal UO-31 CL9004: 1
